Assay results as given in patent US11891640B1, “Crop protection in algae by exogenous terpene expression” (priority 2021, dated 2024).

Tested on: Brachionus plicatilis (rotifers)
Assay: Cultivation assay of N. oceanica in the presence of rotifers (culture stability against predation)
Assay type: in vivo
Settings: rotifer concentrations between 10-50/mL
From the text: FIGS. 3A-3B show culture stability in the presence of predation by rotifers. Provided are graphs showing (A) a culture including wild type Nannochloropsis oceanica (N. oceanica) exposed to increasing Brachionus plicatilis (rotifers) concentrations and (B) a transformed culture including N. oceanica strain 24N having a […]-322581 (Hypoxylon sp. CI-4A, sesquiterpene synthase) gene. Cultivation assays of N. oceanica in the presence of rotifers, which are common algae grazers and culture-crash inducing agents, indicate up to 50% increased survival of the sesquiterpene producing cultures over controls, indicating potential for algae crop-protection applications. Additional details follow. FIGS. 3A-3B show culture stability against predation.

For C=C(C)[C@@H]1CC=C2CCC[C@@H](C)[C@]2(C)C1 [aristolochene], the predation resistance was “significantly increased predation resistance”.
